According to patent US20050245399A1, “Pyrazole derivatives as herbicidal compositions containing them” (ISHIHARA SANGYO KAISHA, LTD., priority 2004, published 2005):

Columns and labels:
Format in all cases: in vivo
[1] = system: barnyardgrass (Echinochloa crus-galli L.): ECHCG; assay: Test Example 1 pre-emergence herbicidal activity, ECHCG; conditions: Rate 63 g a.i./ha, visually observed 20th to 23rd day after application
In short: (§1)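 Seeds go into pots of upland field soil; one day on, the diluted formulation (500 L/ha water) is sprayed pre-emergence. Effects are scored visually 20 to 23 days post-application as 0–100% growth control.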

[2] = system: crabgrass (Digitaria sanguinalis L.): DIGSA; assay: Test Example 1 pre-emergence herbicidal activity, DIGSA; conditions: Rate 63 g a.i./ha, visually observed 20th to 23rd day after application
In short: as §1

[3] = system: green foxtail (Setaria viridis L.): SETVI; assay: Test Example 1 pre-emergence herbicidal activity, SETVI; conditions: Rate 63 g a.i./ha, visually observed 20th to 23rd day after application
In short: as §1

[4] = system: redroot pigweed (Amaranthus retroflexus L.): AMARE; assay: Test Example 1 pre-emergence herbicidal activity, AMARE; conditions: Rate 63 g a.i./ha, visually observed 20th to 23rd day after application
In short: as §1

[5] = system: prickly sida (Sida spinosa L.): SEDSP; assay: Test Example 1 pre-emergence herbicidal activity, SIDSP; conditions: Rate 63 g a.i./ha, visually observed 20th to 23rd day after application
In short: as §1

[6] = system: common cocklebur (Xanthium strumarium L.): XANST; assay: Test Example 1 pre-emergence herbicidal activity, XANST; conditions: Rate 63 g a.i./ha, visually observed 20th to 23rd day after application
From the text: Upland field soil was put into a 1/170,000 ha pot, and seeds of various plants {1. barnyardgrass (Echinochloa crus-galli L.): ECHCG, 2. crabgrass (Digitaria sanguinalis L.): DIGSA, 3. green foxtail (Setaria viridis L.): SETVI, 4. redroot pigweed (Amaranthus retroflexus L.): AMARE, 5. prickly sida (Sida spinosa L.): SEDSP, 6. velvetleaf (Abutilon theophrasti): ABUTH, 7. common cocklebur (Xanthium strumarium L.): XANST, 8. rice (Oryza sativa L.): ORYSA, 9. wheat (Triticum aestivum L.): TRZAX, 10. corn (Zea mays L.): ZEAMX, 11. soybean (Glycine max Merr.): GLXMA} were sown. Then, one day after the sowing, a wettable powder or emulsifiable concentrate having the compound of the present invention formulated in accordance with a usual formulation method, was weighed so that the active ingredient would be a predetermined amount and diluted with water in an amount of 500 L/ha. The herbicide adjusted was applied by a small size sprayer for preemergence treatment. On the 20th to 23rd day after the application of the herbicide, the growth of the respective plants was visually observed, and the herbicidal effects were evaluated by growth controlling degrees (%) ranging from 0 (equivalent to the untreated control) to 100 (complete kill), whereby the results shown in Table 4, were obtained. Compound Nos. in Table 4 correspond to Compound Nos. in Table 1 and 2 given hereinbefore.

[7] = system: rice (Oryza sativa L.): ORYSA; assay: Test Example 1 pre-emergence herbicidal activity, ORYSA; conditions: Rate 63 g a.i./ha, visually observed 20th to 23rd day after application
In short: as §1

[8] = system: wheat (Triticum aestivum L.): TRZAX; assay: Test Example 1 pre-emergence herbicidal activity, TRZAX; conditions: Rate 63 g a.i./ha, visually observed 20th to 23rd day after application
In short: as §1

[9] = system: soybean (Glycine max Merr.): GLXMA; assay: Test Example 1 pre-emergence herbicidal activity, GLXMA; conditions: Rate 63 g a.i./ha, visually observed 20th to 23rd day after application
In short: as §1

[10] = system: barnyardgrass (Echinochloa crus-galli L.), ECHCG; assay: Test Example 2 post-emergence (foliage treatment) herbicidal activity, ECHCG
In short: (§2)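 Sow in upland soil; grow to leaf stage (barnyardgrass 1.1-2.1, crabgrass 1.0-2.0, pigweed 0.1-1.5, rice 1.0-2); spray foliage at a fixed active ingredient rate in 500 L/ha water with 0.1% (v/v) spreader; rate growth control visually at 20-23 days on a 0-100% scale.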

[11] = system: crabgrass (Digitaria sanguinalis L.), DIGSA; assay: Test Example 2 post-emergence (foliage treatment) herbicidal activity, DIGSA
In short: as §2

[12] = system: green foxtail (Setaria viridis L.), SETVI; assay: Test Example 2 post-emergence (foliage treatment) herbicidal activity, SETVI
In short: (§3)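 A small sprayer delivered the diluted WP or EC formulation (500 L/ha water, 0.1% v/v spreader) over emerged seedlings in upland soil pots. Damage relative to untreated plants was graded visually from 0 to 100% three weeks or so later (days 20-23).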

[13] = system: redroot pigweed (Amaranthus retroflexus L.), AMARE; assay: Test Example 2 post-emergence (foliage treatment) herbicidal activity, AMARE
In short: as §2

[14] = system: velvetleaf (Abutilon theophrasti), ABUTH; assay: Test Example 2 post-emergence (foliage treatment) herbicidal activity, ABUTH
In short: as §3

[15] = system: common cocklebur (Xanthium strumarium L.), XANST; assay: Test Example 2 post-emergence (foliage treatment) herbicidal activity, XANST
From the text: Upland field soil was put into a 1/170,000 ha pot, and seeds of various plants were sown. Then, when the plants reached predetermined leaf stages {1. barnyardgrass (Echinochloa crus-galli L.), ECHCG: 1.1-2.1 leaf stage, 2. crabgrass (Digitaria sanguinalis L.), DIGSA: 1.0-2.0 leaf stage, 3. green foxtail (Setaria viridis L.), SETVI: 1.0-2.2 leaf stage, 4. redroot pigweed (Amaranthus retroflexus L.), AMARE: 0.1-1.5 leaf stage, 5. prickly sida (Sida spinosa L.), SIDSP: 0.1-0.6 leaf stage, 6. velvetleaf (Abutilon theophrasti), ABUTH: 0.1-0.6 leaf stage, 7. common cocklebur (Xanthium strumarium L.), XANST: 0.1 leaf stage, 8. rice (Oryza sativa L.), ORYSA; 1.0-2 leaf stage, 9. wheat (Triticum aestivum L.), TRZAX: 2.3-3.5 leaf stage, 10. corn (Zea mays L.), ZEAMXN 2.1-2.6 leaf stage, 11. soybean (Glycine max Merr.), GLXMA: primary leaf stage}, a wettable powder or emulsifiable concentrate having the compound of the present invention formulated in accordance with a usual formulation method, was weighed so that the active ingredient would be a predetermined amount, and diluted with water in an amount of 500 L/ha. To the diluted solution, 0.1% (v/v) of an agricultural spreader was added. The herbicide adjusted was applied by a small size sprayer for foliage treatment. On the 20th to 23rd day after the application of the herbicide, the growth of the respective plants was visually observed, and the herbicidal effects were evaluated by growth controlling degrees (%) ranging from 0 (equivalent to the untreated control) to 100 (complete kill), whereby the results shown in Table 5, were obtained. Compound Nos. in Table 5 correspond to Compound Nos. in Table 1 and 2 given hereinbefore.

[16] = system: corn (Zea mays L.), ZEAMX; assay: Test Example 2 post-emergence (foliage treatment) herbicidal activity, ZEAMX
In short: as §3

| Structure (SMILES) | Pre-emergence Herbicidal Activity ECHCG (growth controlling degree) [1] [%] | Pre-emergence Herbicidal Activity DIGSP (growth controlling degree) [2] [%] | Pre-emergence Herbicidal Activity SETVI (growth controlling degree) [3] [%] | Pre-emergence Herbicidal Activity AMARE (growth controlling degree) [4] [%] | Pre-emergence Herbicidal Activity SIDSP (growth controlling degree) [5] [%] | Pre-emergence Herbicidal Activity XANST (growth controlling degree) [6] [%] | Pre-emergence Herbicidal Activity ORYSA (growth controlling degree) [7] [%] | Pre-emergence Herbicidal Activity TRZAX (growth controlling degree) [8] [%] | Pre-emergence Herbicidal Activity GLXMA (growth controlling degree) [9] [%] | growth controlling degree, ECHCO ([10]; 63 g a.i./ha) [%] | growth controlling degree, DIGSP ([11]; 63 g a.i./ha) [%] | growth controlling degree, SETVI ([12]; 63 g a.i./ha) [%] | growth controlling degree, AMARE ([13]; 63 g a.i./ha) [%] | growth controlling degree, ABUTH ([14]; 63 g a.i./ha) [%] | growth controlling degree, XANST ([15]; 63 g a.i./ha) [%] | growth controlling degree, ZEAMX ([16]; 63 g a.i./ha) [%] | further results |
| --- | --- | --- | --- | --- | --- | --- | --- | --- | --- | --- | --- | --- | --- | --- | --- | --- | --- |
| COc1c(Cl)cc(F)c(-c2nn(C)c(OC(F)F)c2Cl)c1N(C(=O)C=C(C)C)C(=O)C=C(C)C [Compound 1-11] | 70 | 40 | 100 | 100 | 100 | 30 | 40 | 20 | 50 | 70 | 40 | 100 | 100 | 100 | 30 | 30 | – |
| COc1c(Cl)cc(F)c(-c2nn(C)c(OC(F)F)c2Cl)c1N(C=O)CC(=O)c1ccccc1 [Compound 1-12] | 70 | 30 | 95 | 100 | 100 | 50 | 40 | 20 | 40 | 70 | 30 | 95 | 100 | 100 | 50 | 10 | – |
| COc1c(Cl)cc(F)c(-c2nn(C)c(OC(F)F)c2Cl)c1N(C=O)CC(=O)c1ccc(Cl)cc1 [Compound 1-13] | 80 | 70 | 90 | 100 | 100 | 50 | 70 | 30 | 50 | 80 | 70 | 90 | 100 | 100 | 50 | 40 | – |
| COc1c(Cl)cc(F)c(-c2nn(C)c(OC(F)F)c2Cl)c1N(C=O)CC(C)=O [Compound 1-14] | 98 | 98 | 100 | 100 | 100 | 100 | 40 | 40 | 60 | 98 | 98 | 100 | 100 | 100 | 100 | 40 | – |
| Cn1nc(-c2c(F)cc(Cl)c(OC(F)F)c2N)c(Cl)c1OC(F)F [Compound 1-81, 3-chloro-6-[4-chloro-5-(difluoromethoxy)-1-methyl-1H-pyrazol-3-yl]-2-(difluoromethoxy)-5-fluorobenzenamine] | 90 | 100 | 100 | 100 | 100 | 60 | 20 | 20 | 20 | – | – | – | – | – | – | – | growth controlling degree, ECHCO ([10]; 125 g a.i./ha): 100%; growth controlling degree, DIGSP ([11]; 125 g a.i./ha): 100%; growth controlling degree, SETVI ([12]; 125 g a.i./ha): 100%; growth controlling degree, AMARE ([13]; 125 g a.i./ha): 100%; growth controlling degree, ABUTH ([14]; 125 g a.i./ha): 100%; growth controlling degree, XANST ([15]; 125 g a.i./ha): 100%; growth controlling degree, ZEAMX ([16]; 125 g a.i./ha): 90% |
